Data taken from article PMC3427785 (The Journal of organic chemistry, 2012).
Like-named read-outs stand apart in the source and are kept apart here.

What was measured:
1A9-PTX10 = assay: Antiproliferative activity; assay type: cell-based, human
[1] = system: human ovarian cancer 1A9 cells; assay: Antiproliferative activity; assay type: cell-based; conditions: read-out: GI50, 1A9; ovarian 1A9; four days
1A9-PTX22 = assay: Antiproliferative activity; assay type: cell-based, human; conditions: read-out: GI50, PTX22; paclitaxel-resistant ovarian 1A9-PTX22; four days
cytomegalovirus (CMV) = assay: Anti-CMV activity in HEL cells as summarised in text; assay type: cell-based
[2] = system: colorectal carcinoma HCT116 cells; assay: Antiproliferative activity; assay type: cell-based, human; conditions: read-out: GI50, HCT116, four days
HEL cells = assay: HEL cell growth inhibition; assay type: cell-based, human; conditions: read-out: HEL cell effects, cell growth (IC50); concentration required to reduce cell growth by 50%
[3] = system: HCT116 p53 knockout cells; assay type: cell-based, human; conditions: read-out: GI50, p53KO, four days
[4] = system: vesicular stomatitis virus (VSV); assay type: cell-based; conditions: read-out: anti-VSV activity; human cervix carcinoma HeLa cell cultures
[5] = system: HeLa and HEL cell cultures
[6] = system: vesicular stomatitis virus (VSV); assay type: cell-based; conditions: human embryonic lung (HEL) fibroblast cell cultures
[7] = system: cytomegalovirus (CMV) Davis strain; assay: Anti-CMV activity; assay type: cell-based; conditions: read-out: anti-CMV activity EC50, Davis strain
[8] = system: cytomegalovirus (CMV) AD-169 strain; assay: Anti-CMV activity; assay type: cell-based; conditions: read-out: anti-CMV activity EC50, AD-169 strain
[9] = read-out: GI50, PTX10, paclitaxel-resistant ovarian 1A9-PTX10, four days

Row | Compound | GI50 (1A9-PTX10; [9]) | GI50 [1] | GI50 (1A9-PTX22) | activity against cytomegalovirus (in words) (cytomegalovirus (CMV); HEL cells) | GI50 [2] | IC50 (HEL cells) | GI50 [3] | minimum detectable morphology-altering (cytotoxic) concentration (MCC) (canine kidney MDCK) | minimum detectable morphology-altering (cytotoxic) concentration (MCC) (green monkey kidney Vero) | minimum detectable morphology-altering (cytotoxic) concentration (MCC) (feline kidney CRFK) | EC50 [4] | toxicity observed [5] | anti-VSV activity (in words) [6] | activity against cytomegalovirus (in words) (cytomegalovirus (CMV)) | EC50 [7] | EC50 [8] | GI50 (1A9-PTX10; Homo sapiens, 1A9/ptx-10, read-out: GI50, PTX10)
1 | 2-(4-n-Butyl-1,2,3-triazol-1H-yl)inosine [Compound 23] | > 50 µM | 37 µM | 28.1 µM | somewhat more pronounced | > 50 µM | > 250 µM | > 50 µM | – | – | – | – | – | – | – | – | – | –
2 | 2-[4-(4-Fluorophenyl)-1,2,3-triazol-1H-yl]inosine [Compound 24] | > 50 µM | 34 µM | 31 µM | – | > 50 µM | – | > 50 µM | – | – | – | – | – | – | – | – | – | –
3 | 2-[4-(4-Methoxyphenyl)-1,2,3-triazol-1H-yl]inosine [Compound 19] | > 50 µM | 29.5 µM | 8.56 µM | – | > 50 µM | > 230 µM | > 50 µM | – | – | – | – | – | – | – | – | – | –
4 | 2-[4-(4-Methylphenyl)-1,2,3-triazol-1H-yl]inosine [Compound 18] | > 50 µM | 38 µM | 13.4 µM | marginal activity | > 50 µM | ≥ 240 µM | > 50 µM | – | – | – | – | – | – | – | – | – | –
5 | 2-[4-(Ferrocenyl)-1,2,3-triazol-1H-yl]inosine [Compound 22] | > 50 µM | 29.7 µM | 12.9 µM | marginal activity | > 50 µM | 123 µM | > 50 µM | – | – | – | – | – | – | – | – | – | –
6 | 2-[4-(Hydroxymethyl)-1,2,3-triazol-1H-yl]inosine [Compound 20] | > 50 µM | 20.4 µM | 3.53 µM | – | > 50 µM | – | 42.6 µM | – | – | – | – | – | – | – | – | – | –
7 | 2-[4-(N-Phthalimidomethyl)-1,2,3-triazol-1H-yl]inosine [Compound 21] | > 50 µM | 6.32 µM | 14.1 µM | – | > 50 µM | > 200 µM | > 50 µM | – | – | – | – | – | – | – | – | – | –
8 | 6-(Morpholin-4-yl)-2-(4-phenyl-1,2,3-triazol-1H-yl)-9-(β-D-ribofuranosyl)purine [Compound 34] | 11.7 µM | 0.18 µM | 0.95 µM | – | 3.7 µM | – | 10.4 µM | 8.3 μM | 210 μM | 83 μM | – | – | – | – | – | – | –
9 | OC[C@H]1O[C@@H](n2cnc3c(O)nc(-n4cc(-c5ccccc5)nn4)nc32)[C@H](O)[C@@H]1O [Compound 17, 2-[4-(Phenyl)-1,2,3-triazol-1H-yl]inosine] | > 50 µM | 22.8 µM | 4.76 µM | – | > 50 µM | – | > 50 µM | – | – | – | 27 ± 2.4 µM | 100 to 240 µM | could not be confirmed | – | – | – | –
10 | OC[C@H]1O[C@@H](n2cnc3c(O)nc(-n4cc(-c5ccccc5)nn4)nc32)C[C@@H]1O [Compound 25, 2-[4-(Phenyl)-1,2,3-triazol-1H-yl]-2′-deoxyinosine] | > 50 µM | 31 µM | 14.8 µM | – | > 50 µM | 188 µM | > 50 µM | – | – | – | – | – | – | marginal activity | 158 µM | ≥ 250 µM | –
11 | COc1ccc(-c2cn(-c3nc(O)c4ncn([C@H]5C[C@H](O)[C@@H](CO)O5)c4n3)nn2)cc1 [Compound 26, 2-[4-(4-Methoxyphenyl)-1,2,3-triazol-1H-yl]-2′-deoxyinosine] | > 50 µM | 37.2 µM | 15.7 µM | – | > 50 µM | – | > 50 µM | – | – | – | – | – | – | – | > 240 µM | > 240 µM | –
12 | OCc1cn(-c2nc(O)c3ncn([C@H]4C[C@H](O)[C@@H](CO)O4)c3n2)nn1 [Compound 27, 2-[4-(Hydroxymethyl)-1,2,3-triazol-1H-yl]-2′-deoxyinosine] | > 50 µM | 49.4 µM | 32.9 µM | – | > 50 µM | – | > 50 µM | – | – | – | – | – | – | – | > 290 µM | > 290 µM | –
13 | O=C1c2ccccc2C(=O)N1Cc1cn(-c2nc(O)c3ncn([C@H]4C[C@H](O)[C@@H](CO)O4)c3n2)nn1 [Compound 28, 2-[4-(N-Phthalimidomethyl)-1,2,3-triazol-1H-yl]-2′-deoxyinosine] | > 50 µM | 49.6 µM | 32.2 µM | – | > 50 µM | – | > 50 µM | – | – | – | – | – | – | – | > 210 µM | > 210 µM | –
14 | OC[C@H]1O[C@@H](n2cnc3c(O)nc(-n4cc(-[c-]5cccc5)nn4)nc32)C[C@@H]1O.[Fe+2].c1cc[cH-]c1 [Compound 29, 2-[4-(Ferrocenyl)-1,2,3-triazol-1H-yl]-2′-deoxyinosine] | > 50 µM | 41.6 µM | 18 µM | – | > 50 µM | > 200 µM | > 50 µM | – | – | – | – | – | – | – | ≥ 200 µM | ≥ 200 µM | –
15 | CCCCc1cn(-c2nc(O)c3ncn([C@H]4C[C@H](O)[C@@H](CO)O4)c3n2)nn1 [Compound 30, 2-(4-n-Butyl-1,2,3-triazol-1H-yl)-2′-deoxyinosine] | > 50 µM | 46.1 µM | 26.9 µM | – | > 50 µM | – | > 50 µM | – | – | – | – | – | – | – | > 270 µM | > 270 µM | –
16 | OC[C@H]1O[C@@H](n2cnc3c(NCc4ccccc4)nc(-n4cc(-c5ccccc5)nn4)nc32)[C@H](O)[C@@H]1O [Compound 35, 6-(N-Benzyl)-2-[4-(phenyl)-1,2,3-triazol-1H-yl]adenosine] | > 50 µM | 5 µM | 24.5 µM | – | 43.6 µM | – | > 50 µM | – | – | – | – | – | – | – | – | – | –
17 | CC(=O)O[C@H]1C(=O)[C@@]2(C)[C@H]([C@H](OC(=O)c3ccccc3)[C@]3(O)C[C@H](OC(=O)[C@H](O)[C@@H](NC(=O)c4ccccc4)c4ccccc4)C(C)=C1C3(C)C)[C@]1(OC(C)=O)CO[C@@H]1C[C@@H]2O [paclitaxel, reference compound] | – | – | – | – | – | – | – | – | – | – | – | – | – | – | – | – | 0.079 µM
